Legend:
[1] = test system: Botrytis cinerea; test: Fungal growth inhibition assay, 96-well microtitre plate, absorbance at 595 nm; assay type: cell-based; conditions: 20 μg/mL purified protein; FIG. 11
Text: (§1) The 96-well microtitre plate assay of Broekaert et al. (EMS Microbiology Letters 69:55-60, 1990) was used to test the effect of the purified NaPdf1 protein on the growth of Botrytis cinerea (isolated from rosemary, Brunswick, Victoria), Fusarium oxysporum (f. sp. dianthi, Race 2; isolated from carnation by Florigene Limited, Collingwood, Victoria) and Fusarium oxysporum (f. sp. vasinfectum, isolate VCG 01111 from cotton; provided by the Department of Primary Industries, Queensland). Fungal spores were isolated from sporulating cultures growing on half strength potato dextrose agar (PDA, Difco) or gamma-irradiated carnation leaves in water agar by the addition of sterile water and the use of a spreader. The suspension was filtered through two layers of autoclaved muslin and the spore concentration in the filtrate determined using a haemocytometer. The spores were used directly or after storage in sterile 20% v/v glycerol solution at −20° C.
(§2) Antifungal assays were performed in 96-well flat-bottomed microtitre plates (Greiner) under aseptic conditions. The spore concentration was adjusted to about 2×10^4 spores/mL in PDB and 80 μL of this suspension was added to each well to which 20 μL of filter sterilised (0.22 μm syringe filter, Millipore) test protein (10, 50 or 100 μg/mL) or water was added. The purity and concentration of each protein was confirmed before use by RP-HPLC analysis. Sterile water and ovalbumin (Sigma) were added to other wells as negative controls, and a mixture of the antifungal proteins α- and β-purothionin (Sigma) was used as a positive control. The plates were shaken on an orbital shaker for a few seconds to mix the spores and the test proteins. The plates were allowed to stand for 30 min to allow the spores to sediment before the optical density of the plates were determined using a Spectra Max Pro 250 microplate reader (Molecular Devices) at 595 nm absorbance. […] An increase in absorbance relative to the initial reading was correlated with the growth of fungal hyphae and this was plotted against time. […]

[2] = test system: Fusarium oxysporum (f. sp. vasinfectum, isolate VCG 01111); test: as above; assay type: cell-based; conditions: 20 μg/mL purified protein; FIGS. 12B and 12C
Text: as §1, §2

[3] = test system: Fusarium oxysporum (f. sp. dianthi, Race 2); test: as above; assay type: cell-based; conditions: 20 μg/mL purified protein; FIG. 12A
Text: as §1, §2

[4] = test system: H. armigera larvae; test: Insect feeding trial with artificial cotton leaf diet; assay type: in vivo; conditions: 0.3% (w/v) test protein in artificial diet; casein control; FIG. 16
Text: Table 2 Artificial diet ingredients used in the feeding trial of H. armigera [table] Helicoverpa punctigera larvae came from a colony collected in Victoria, Australia and maintained in culture at La Trobe University, Melbourne and H. armigera were obtained from a colonies maintained at La Trobe University, Melbourne or the Australian Cotton Research Institute, at the Entomology Department of the Commonwealth Scientific and Industrial Research Organisation in Narrabri, NSW. To confirm that the insecticidal activity was due to the defensin and not to upregulation of other endogenous defense molecules, a feeding trial using artificial cotton leaf diet containing purified defensin from floral buds was performed. The 6 kDa cysteine rich proteinase inhibitors (NaPI) from N. alata (Atkinson et al., Plant Cell 5: 203-213, 1993) were used as positive control and casein was used as a negative control. Feeding trials were conducted as described in Heath et al. (J. Insect Physiology 43: 833-842, 1997 except that the artificial diet was based on cotton leaves (Table 2). Thirty milligram of defensin was purified from floral buds of N. alata and used in artificial diets at two concentrations. H. armigera larvae fed on defensin at 0.3% (w/v) were 40% smaller than controls (FIG. 16) while larvae fed on NaPI at the same concentration were about 60% smaller than controls.

NaPdf1: Mature floral defensin (47 amino acids, ~5.3 kDa) from Nicotiana alata, purified from floral buds (RECKTESNTFPGICITKPPCRKACISEKFTDGHCSKILRRCLCTKPC; listed as Nicotiana alata)
growth inhibition of B. cinerea [1]: effectiveness | growth inhibition of F. oxysporum f. sp. vasinfectum [2]: effectiveness | growth inhibition of F. oxysporum f. sp. dianthi [3]: effectiveness | larvae smaller than controls (mean weight) [4]: 40%

Reference: patent publication US9896697B2, “Defensin-encoding nucleic acid molecules derived from Nicotiana alata, uses therefor and transgenic plants comprising same” (HEXIMA LIMITED, priority 2001, dated 2018)
